One assay concerns the target human orexin-1 receptor (Homo sapiens (Human), UniProt O43613). Briefly: In vitro assay: intracellular calcium measurements (FLIPR), antagonistic activity. The format is cell-based. The settings on record: CHO cells expressing human orexin-1 receptor, orexin-A agonist, geometric mean, read-out: IC50 Ox1. In short, it runs like this: (§1)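 IC50s are geometric means, possibly reference-normalized, from FLIPR calcium peaks in CHO cells bearing human orexin-1 or orexin-2 receptor. Fluo-4 AM/probenecid-loaded cells received antagonist for 120 min before challenge with orexin-A (final 3 nM, ~EC70), with responses compared against vehicle controls.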
(Calcium flux is commonly read through the fluorescence of an indicator in the cells.)

Another assay deals with human orexin-2 receptor (Homo sapiens (Human), UniProt O43614). The description is as above. The format is cell-based. The settings on record: CHO cells expressing human orexin-2 receptor, orexin-A agonist, geometric mean, read-out: IC50 Ox2. In a few lines:
as §1

A word on the IC50: it is the midpoint of a concentration-inhibition curve.

SMILES strings stand for the structures.

Sequence of human orexin-2 receptor (O43614 whole entry): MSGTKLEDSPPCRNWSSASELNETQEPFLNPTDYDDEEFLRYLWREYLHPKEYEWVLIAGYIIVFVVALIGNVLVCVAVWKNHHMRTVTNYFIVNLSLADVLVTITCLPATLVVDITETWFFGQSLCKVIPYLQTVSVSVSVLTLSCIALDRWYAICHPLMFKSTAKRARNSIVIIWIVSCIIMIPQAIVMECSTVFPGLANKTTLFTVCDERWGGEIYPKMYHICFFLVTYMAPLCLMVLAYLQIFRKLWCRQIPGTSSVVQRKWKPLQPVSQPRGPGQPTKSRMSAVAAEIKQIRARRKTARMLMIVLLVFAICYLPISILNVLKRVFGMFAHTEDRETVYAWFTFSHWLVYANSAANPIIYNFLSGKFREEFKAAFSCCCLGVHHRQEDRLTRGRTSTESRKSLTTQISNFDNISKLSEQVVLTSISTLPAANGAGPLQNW
Sequence of human orexin-1 receptor (O43613 whole entry): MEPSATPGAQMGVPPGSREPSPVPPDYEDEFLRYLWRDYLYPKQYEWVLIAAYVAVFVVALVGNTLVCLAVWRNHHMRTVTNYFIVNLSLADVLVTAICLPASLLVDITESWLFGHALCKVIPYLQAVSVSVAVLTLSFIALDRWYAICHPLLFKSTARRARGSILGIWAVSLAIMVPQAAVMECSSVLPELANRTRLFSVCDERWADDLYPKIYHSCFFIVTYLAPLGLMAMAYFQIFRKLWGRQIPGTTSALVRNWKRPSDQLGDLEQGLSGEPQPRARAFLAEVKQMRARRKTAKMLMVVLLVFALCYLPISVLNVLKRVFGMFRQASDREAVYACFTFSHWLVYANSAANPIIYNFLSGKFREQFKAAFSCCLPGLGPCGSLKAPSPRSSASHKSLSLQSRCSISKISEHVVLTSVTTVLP

Take `COc1cccc(-c2ccccc2C(=O)N2CCC[C@@]2(C)c2nc3c(C)c(C)ccc3[nH]2)c1` [Ex. 5.117]: the IC50 on human orexin-1 receptor was determined as 57 nM; at human orexin-2 receptor, 38 nM.
For `Cc1cccc(-c2ccccc2C(=O)N2CCC[C@@]2(C)c2nc3c(C)c(C)ccc3[nH]2)c1` [Ex. 5.118], in that order: 25 nM and 35 nM.
For `COc1ccc(-c2ccccc2C(=O)N2CCC[C@@]2(C)c2nc3c(C)c(C)ccc3[nH]2)cc1` [Ex. 5.119], in that order: 30 nM and 29 nM.
For `Cc1ccc(-c2ccccc2C(=O)N2CCC[C@@]2(C)c2nc3c(C)c(C)ccc3[nH]2)cc1` [Ex. 5.120], in that order: 48 nM and 26 nM.
With `Cc1ccc2[nH]c([C@]3(C)CCCN3C(=O)c3ccccc3-c3ccccc3F)nc2c1C` [Ex. 5.121], the IC50 at human orexin-1 receptor amounted to 56 nM; at human orexin-2 receptor it was 43 nM.
The corresponding values for `Cc1ccc2[nH]c([C@]3(C)CCCN3C(=O)c3ccccc3-c3ccc(F)cc3)nc2c1C` [Ex. 5.122] are 99 nM and 74 nM.
For `C[C@@]1(c2nc3cc(F)c(Br)cc3[nH]2)CCCN1C(=O)c1c(F)cccc1-n1nccn1` [Ex. 5.123], in that order: 146 nM and 304 nM.
The corresponding values for `Cc1ccc(-n2nccn2)c(C(=O)N2CCC[C@@]2(C)c2nc3cc(F)c(Br)cc3[nH]2)c1F` [Ex. 5.124] are 113 nM and 411 nM.
On to `COc1cc(C(=O)N2CCC[C@@]2(C)c2nc3cc(F)c(Br)cc3[nH]2)c(-n2nccn2)cc1OC` [Ex. 5.125], for which the IC50 came to 84 nM on human orexin-1 receptor and 126 nM on human orexin-2 receptor.
In the case of `Cc1cc(C(=O)N2CCC[C@@]2(C)c2nc3cc(F)c(Br)cc3[nH]2)c(-n2nccn2)cc1C` [Ex. 5.127], the IC50 came out at 1 nM at human orexin-1 receptor and 6 nM on human orexin-2 receptor.
For `Cc1ccc(-n2cccn2)c(C(=O)N2CCC[C@@]2(C)c2nc3cc(F)c(Br)cc3[nH]2)c1` [Ex. 5.128], in that order: 20 nM and 219 nM.
On to `C[C@@]1(c2nc3cc(F)c(Br)cc3[nH]2)CCCN1C(=O)c1cc(Cl)ccc1-n1nccn1` [Ex. 5.129], for which the IC50 at human orexin-1 receptor is 20 nM; at human orexin-2 receptor, 62 nM.
Turning to `Cc1ccc(C(=O)N2CCC[C@@]2(C)c2nc3cc(F)c(Br)cc3[nH]2)c(-n2nccn2)c1` [Ex. 5.130], the IC50 was determined as 24 nM at human orexin-1 receptor and 58 nM on human orexin-2 receptor.
For `Cc1ccc(-n2nccn2)c(C(=O)N2CCC[C@@]2(C)c2nc3cc(F)c(Br)cc3[nH]2)n1` [Ex. 5.131], in that order: 15 nM and 178 nM.
The corresponding values for `COc1ccc(-n2nccn2)c(C(=O)N2CCC[C@@]2(C)c2nc3cc(F)c(Br)cc3[nH]2)c1F` [Ex. 5.132] are 54 nM and 615 nM.
For `C[C@@]1(c2nc3cc(C(F)(F)F)c(Cl)cc3[nH]2)CCCN1C(=O)c1c(F)cccc1-n1nccn1` [Ex. 5.133], the IC50 is 11 nM at human orexin-1 receptor and 45 nM on human orexin-2 receptor.
For `Cc1ccc(-n2nccn2)c(C(=O)N2CCC[C@@]2(C)c2nc3cc(C(F)(F)F)c(Cl)cc3[nH]2)c1F` [Ex. 5.134], in that order: 8 nM and 20 nM.
As to `COc1cc(C(=O)N2CCC[C@@]2(C)c2nc3cc(C(F)(F)F)c(Cl)cc3[nH]2)c(-n2nccn2)cc1OC` [Ex. 5.135], the IC50 worked out at 10 nM on human orexin-1 receptor and 49 nM at human orexin-2 receptor.
The corresponding values for `C[C@@]1(c2nc3cc(C(F)(F)F)c(Cl)cc3[nH]2)CCCN1C(=O)c1cc(F)ccc1-n1nccn1` [Ex. 5.136] are 6 nM and 35 nM.
In the case of `Cc1ccc(-n2cccn2)c(C(=O)N2CCC[C@@]2(C)c2nc3cc(C(F)(F)F)c(Cl)cc3[nH]2)c1` [Ex. 5.138], the 50% inhibitory concentration (IC50) at human orexin-1 receptor came out at 2 nM; on human orexin-2 receptor it was 10 nM.
The corresponding values for `C[C@@]1(c2nc3cc(C(F)(F)F)c(Cl)cc3[nH]2)CCCN1C(=O)c1cc(Cl)ccc1-n1nccn1` [Ex. 5.139] are 2 nM and 21 nM.
In the case of `Cc1ccc(C(=O)N2CCC[C@@]2(C)c2nc3cc(C(F)(F)F)c(Cl)cc3[nH]2)c(-n2nccn2)c1` [Ex. 5.140], the IC50 on human orexin-1 receptor came to 5 nM; on human orexin-2 receptor, 28 nM.
For `C[C@@]1(c2nc3cc(C(F)(F)F)c(Cl)cc3[nH]2)CCCN1C(=O)c1ccccc1-n1cccn1` [Ex. 5.141], in that order: 27 nM and 244 nM.
In the case of `C[C@@]1(c2nc3cc(C(F)(F)F)c(Cl)cc3[nH]2)CCCN1C(=O)c1ccccc1-n1nccn1` [Ex. 5.142], the IC50 at human orexin-1 receptor is 8 nM; at human orexin-2 receptor it was 24 nM.
The corresponding values for `Cc1ccc(-n2cccn2)c(C(=O)N2CCC[C@@]2(C)c2nc3cc(C(F)(F)F)c(Cl)cc3[nH]2)n1` [Ex. 5.143] are 7 nM and 82 nM.
For `C[C@@]1(c2nc3cc(C(F)(F)F)c(Cl)cc3[nH]2)CCCN1C(=O)c1cc(C(F)(F)F)ccc1-n1nccn1` [Ex. 5.144], in that order: 20 nM and 210 nM.
For `Cc1ccc(-n2nccn2)c(C(=O)N2CCC[C@@]2(C)c2nc3cc(C(F)(F)F)c(Cl)cc3[nH]2)n1` [Ex. 5.145], in that order: 6 nM and 30 nM.
For the molecule `COc1ccc(-n2nccn2)c(C(=O)N2CCC[C@@]2(C)c2nc3cc(C(F)(F)F)c(Cl)cc3[nH]2)c1F` [Ex. 5.146], the IC50 at human orexin-1 receptor came to 15 nM; on human orexin-2 receptor, 43 nM.
As to `C[C@@]1(c2nc3cc(C(F)(F)F)c(Cl)cc3[nH]2)CCCN1C(=O)c1cc(OC(F)(F)F)ccc1-n1nccn1` [Ex. 5.147], the values for the IC50 on human orexin-1 receptor and at human orexin-2 receptor were 27 nM and 112 nM, respectively.
The corresponding values for `COc1ccccc1-c1ccc(C)cc1C(=O)N1CCC[C@@]1(C)c1nc2cc(C(F)(F)F)c(Cl)cc2[nH]1` [Ex. 5.148] are 35 nM and 159 nM.
Turning to `COc1cccc(-c2ccc(C)cc2C(=O)N2CCC[C@@]2(C)c2nc3cc(C(F)(F)F)c(Cl)cc3[nH]2)c1` [Ex. 5.149], the IC50 is 21 nM at human orexin-1 receptor and 26 nM at human orexin-2 receptor.
For `COc1ccc(-c2ccc(C)cc2C(=O)N2CCC[C@@]2(C)c2nc3cc(C(F)(F)F)c(Cl)cc3[nH]2)cc1` [Ex. 5.150], in that order: 37 nM and 49 nM.
For the molecule `Cc1ccc(-c2ccccc2F)c(C(=O)N2CCC[C@@]2(C)c2nc3cc(C(F)(F)F)c(Cl)cc3[nH]2)c1` [Ex. 5.151], the results for the IC50 on human orexin-1 receptor and on human orexin-2 receptor were 20 nM and 40 nM, respectively.
Consider `Cc1ccc(-c2ccc(F)cc2)c(C(=O)N2CCC[C@@]2(C)c2nc3cc(C(F)(F)F)c(Cl)cc3[nH]2)c1` [Ex. 5.152], for which the half-inhibitory concentration (IC50) at human orexin-1 receptor came out at 24 nM; at human orexin-2 receptor, 51 nM.
As to `Cc1ccc(-c2cccc(F)c2)c(C(=O)N2CCC[C@@]2(C)c2nc3cc(C(F)(F)F)c(Cl)cc3[nH]2)c1` [Ex. 5.153], the IC50 worked out at 22 nM on human orexin-1 receptor and 35 nM on human orexin-2 receptor.
As to `Cc1ccc(-c2ccc(C)cc2C(=O)N2CCC[C@@]2(C)c2nc3cc(C(F)(F)F)c(Cl)cc3[nH]2)cc1` [Ex. 5.154], the IC50 on human orexin-1 receptor turned out to be 59 nM; on human orexin-2 receptor, 61 nM.
On to `Cc1ccc(-c2cccc(C(F)(F)F)c2)c(C(=O)N2CCC[C@@]2(C)c2nc3cc(C(F)(F)F)c(Cl)cc3[nH]2)c1` [Ex. 5.155], for which the IC50 at human orexin-1 receptor was 134 nM; on human orexin-2 receptor, 249 nM.
`Cc1ccc(-c2ccc3c(c2)OCO3)c(C(=O)N2CCC[C@@]2(C)c2nc3cc(C(F)(F)F)c(Cl)cc3[nH]2)c1` [Ex. 5.156]: the IC50 at human orexin-1 receptor amounted to 38 nM; at human orexin-2 receptor it was 54 nM.
The corresponding values for `Cc1ccc(-c2ccc(C(F)(F)F)cc2)c(C(=O)N2CCC[C@@]2(C)c2nc3cc(C(F)(F)F)c(Cl)cc3[nH]2)c1` [Ex. 5.157] are 367 nM and 538 nM.
For `Cc1ccc(-c2ccc(OC(F)(F)F)cc2)c(C(=O)N2CCC[C@@]2(C)c2nc3cc(C(F)(F)F)c(Cl)cc3[nH]2)c1` [Ex. 5.158], in that order: 525 nM and 879 nM.
As for `Cc1ccc(-c2cccc(C#N)c2)c(C(=O)N2CCC[C@@]2(C)c2nc3cc(C(F)(F)F)c(Cl)cc3[nH]2)c1` [Ex. 5.159], the IC50 at human orexin-1 receptor worked out at 23 nM; on human orexin-2 receptor, 37 nM.
For `Cc1ccc(-c2ccc(C#N)cc2)c(C(=O)N2CCC[C@@]2(C)c2nc3cc(C(F)(F)F)c(Cl)cc3[nH]2)c1` [Ex. 5.160], in that order: 38 nM and 113 nM.
The corresponding values for `Cc1ccc(-c2cccc(C)c2C)c(C(=O)N2CCC[C@@]2(C)c2nc3cc(C(F)(F)F)c(Cl)cc3[nH]2)c1` [Ex. 5.161] are 405 nM and 388 nM.
Consider `CCOc1ccc(-c2ccc(C)cc2C(=O)N2CCC[C@@]2(C)c2nc3cc(C(F)(F)F)c(Cl)cc3[nH]2)cc1` [Ex. 5.162], for which the IC50 was found to be 252 nM at human orexin-1 receptor and 250 nM at human orexin-2 receptor.
As to `Cc1ccc(-c2cccc(OC(F)(F)F)c2)c(C(=O)N2CCC[C@@]2(C)c2nc3cc(C(F)(F)F)c(Cl)cc3[nH]2)c1` [Ex. 5.163], the IC50 is 142 nM on human orexin-1 receptor and 401 nM on human orexin-2 receptor.
For `C[C@@]1(c2nc3cc(C(F)(F)F)ccc3[nH]2)CCCN1C(=O)c1c(F)cccc1-n1nccn1` [Ex. 5.164], in that order: 104 nM and 419 nM.
The corresponding values for `C[C@@]1(c2nc3cc(C(F)(F)F)ccc3[nH]2)CCCN1C(=O)c1cc(F)ccc1-n1nccn1` [Ex. 5.165] are 65 nM and 355 nM.
The corresponding values for `C[C@@]1(c2nc3cc(C(F)(F)F)ccc3[nH]2)CCCN1C(=O)c1cc(Cl)ccc1-n1nccn1` [Ex. 5.166] are 13 nM and 59 nM.
Consider `C[C@@]1(c2nc3cc(C(F)(F)F)ccc3[nH]2)CCCN1C(=O)c1ccccc1-n1nccn1` [Ex. 5.167], for which the IC50 amounted to 91 nM at human orexin-1 receptor and 351 nM on human orexin-2 receptor.
Take `COc1ccc(-n2nccn2)c(C(=O)N2CCC[C@@]2(C)c2nc3cc(C(F)(F)F)ccc3[nH]2)c1F` [Ex. 5.168]: the figures for the IC50 on human orexin-1 receptor and at human orexin-2 receptor were 64 nM and 570 nM, respectively.

For the origin of these results see patent US9732075B2, “Benzimidazole-proline derivatives” (IDORSIA PHARMACEUTICALS LTD, priority 2012, dated 2017).
